Test systems include Staphylococcus aureus; Bacillus megaterium; Escherichia coli MH1; Escherichia coli K-12.
Holding throughout (experiment): ≥ marks a high value that may be exact or a test limit, other limits are often not marked, values filed in µg/mL are converted to µM
The test system of assay [1] is Staphylococcus epidermidis ATCC 35984.
Assay [2] deals with Pseudomonas aeruginosa ATCC 27853.
For assay [3], the system named is Staphylococcus aureus ATCC 25923.
The test system of assay [4] is Staphylococcus aureus ATCC 33591.
Assay [5] deals with Bacillus subtilis IFO 3513.
Assay [6] has as its system Staphylococcus aureus IFO 12732.
Assay [7] has as its system Escherichia coli IFO 12734.
Assay [8] concerns Bacillus subtilis ATCC 23857.
Assay [9] concerns Escherichia coli ATCC 25922.
In assay [10] the test system is Staphylococcus aureus USA 300.
Assay [11] relates to Saccharomyces cerevisiae Y190.
For assay [12], the system named is Escherichia coli DH5alpha.
The subject of assay [13] is Escherichia coli DSM 1116.
Assay [14] deals with Bacillus subtilis VKM B-501.
Assay [15] deals with Bacillus subtilis subsp. spizizenii DSM 347.
The test system of assay [16] is Staphylococcus xylosus DSM 20267.
Assay [17] has as its system Acinetobacter sp. DSM 586.
Assay [18] concerns Pseudomonas aeruginosa PAO1.
In assay [19] the test system is Arthrobacter globiformis VKM Ac-1112.
For assay [20], the system named is Pseudomonas syringae pv. syringae EPS 94.
In assay [21] the test system is Erwinia amylovora PMV 6076.
Assay [22] deals with Xanthomonas fragariae Xf349-9A.
Assay [23] has as its system Xanthomonas arboricola pv. pruni CFBP 5563.
Assay [24] deals with Xanthomonas campestris pv. Vesicatoria 2133-2.
Assay [25] concerns Pseudomonas syringae pv. actinidiae Psa3700.1.1.

≈ marks a conversion by molar mass, not a printed value.

From DBAASP come the findings set out here.

On to `CC[C@H](C)[C@H](NC(=O)[C@H](Cc1cnc[nH]1)NC(=O)[C@@H]1CCCN1C(=O)[C@@H](NC(=O)[C@H](CC(C)C)NC(=O)[C@H](CO)NC(=O)[C@H](CC(C)C)NC(=O)[C@@H](N)Cc1ccccc1)[C@@H](C)CC)C(=O)N[C@H](C(=O)N[C@@H](CO)C(=O)NCC(=O)N[C@H](C(=O)N[C@@H](C)C(=O)N[C@@H](C)C(=O)N[C@@H](CC(C)C)C(=O)N[C@@H](C)C(=O)N[C@@H](CCCCN)C(=O)N[C@@H](Cc1cnc[nH]1)C(=O)N[C@@H](CC(C)C)C(=O)NCC(=O)O)C(C)C)C(C)C` [FLSLIPHIVSGVAALAKHLG], for which the MIC came to 12.5 µM (≈ 25.5 µg/mL) with Staphylococcus aureus and 3.1 µM (≈ 6.33 µg/mL) in the assay on Bacillus megaterium.
Regarding `CC[C@H](C)[C@H](NC(=O)CN)C(=O)NCC(=O)N[C@@H](CCCCN)C(=O)N[C@@H](Cc1ccccc1)C(=O)N[C@@H](CC(C)C)C(=O)N[C@@H](CCCCN)C(=O)N[C@@H](CCCCN)C(=O)N[C@@H](C)C(=O)N[C@@H](CCCCN)C(=O)N[C@@H](CCCCN)C(=O)N[C@@H](Cc1ccccc1)C(N)=O` [GIGKFLKKAKKF], the minimum inhibitory concentration (MIC) in assay [1] was not below 33.2 µM; in assay [2], 4.15 µM (≈ 5.65 µg/mL); in [3], 375 µM (≈ 512 µg/mL); in assay [4], not below 375 µM.
Turning to `CC[C@H](C)[C@H](N)C(=O)N[C@@H](CC(C)C)C(=O)N1CCC[C@H]1C(=O)N[C@@H](CCCCN)C(=O)N[C@@H](CCCCN)C(=O)N[C@@H](Cc1c[nH]c2ccccc12)C(=O)N1CCC[C@H]1C(=O)N[C@@H](CCCCN)C(=O)N[C@@H](CC(C)C)C(=O)N1CCC[C@H]1C(=O)N[C@@H](Cc1c[nH]c2ccccc12)C(=O)N[C@@H](CCCN=C(N)N)C(=O)N[C@@H](CCCN=C(N)N)C(N)=O` [ILPKKWPKLPWRR], the values for the MIC in assay [5], in assay [6] and in [7] were 1.82 µM (≈ 3.13 µg/mL), 3.64 µM (≈ 6.25 µg/mL) and 29.1 µM (≈ 50 µg/mL), respectively.
For `CC[C@H](C)[C@H](N)C(=O)N[C@@H](CC(C)C)C(=O)N1CCC[C@H]1C(=O)N[C@@H](Cc1c[nH]c2ccccc12)C(=O)N[C@@H](CCCCN)C(=O)N[C@@H](CC(C)C)C(=O)N1CCC[C@H]1C(=O)N[C@@H](Cc1c[nH]c2ccccc12)C(=O)N[C@@H](Cc1c[nH]c2ccccc12)C(=O)N1CCC[C@H]1C(=O)N[C@@H](Cc1c[nH]c2ccccc12)C(=O)N[C@@H](CCCN=C(N)N)C(=O)N[C@@H](CCCN=C(N)N)C(N)=O` [ILPWKLPWWPWRR], the results for the MIC in assay [5], in assay [6] and in assay [7] were 1.71 µM (≈ 3.13 µg/mL), 0.851 µM (≈ 1.56 µg/mL) and 13.6 µM (≈ 25 µg/mL), respectively.
With `CC[C@H](C)[C@H](NC(=O)[C@H](C)NC(=O)[C@@H](N)CCSC)C(=O)N[C@H](C(=O)NCC(=O)N[C@H](C(=O)N[C@H](C(=O)N[C@H](C(=O)N[C@@H](CCCCN)C(=O)N[C@H](C(=O)N[C@H](C(=O)N[C@@H](CCCCN)C(=O)N[C@@H](C)C(=O)N[C@H](C(=O)N[C@H](C(=O)N[C@@H](CC(=O)O)C(=O)N[C@H](C(=O)N[C@@H](Cc1ccccc1)C(=O)N[C@@H](C)C(=O)N[C@@H](CCCCN)C(=O)O)[C@@H](C)CC)[C@@H](C)CC)[C@@H](C)CC)[C@@H](C)CC)[C@@H](C)CC)[C@@H](C)CC)[C@@H](C)CC)[C@@H](C)O)C(C)C` [MAIVGTIIKIIKAIIDIFAK], the MIC in assay [8] was not below 128 µM; in assay [1] it was not below 64 µM; in [9] it was more than 128 µM; in assay [10], not below 64 µM.
In the case of `CSCC[C@H](NC(=O)CNC(=O)[C@H](CO)NC(=O)[C@H](Cc1c[nH]c2ccccc12)NC(=O)[C@H](CCSC)NC(=O)[C@@H](N)CO)C(=O)N[C@@H](Cc1c[nH]c2ccccc12)C(=O)N[C@@H](CCCN=C(N)N)C(=O)N[C@@H](CCCN=C(N)N)C(=O)N[C@@H](CCCCN)C(=O)N[C@@H](CC(C)C)C(=O)N[C@@H](CCCCN)C(=O)N[C@@H](CCCCN)C(=O)N[C@@H](CC(C)C)C(=O)N[C@@H](CCCN=C(N)N)C(=O)N[C@@H](CC(N)=O)C(=O)N[C@@H](C)C(=O)N[C@@H](CC(C)C)C(=O)N[C@@H](CCCCN)C(=O)N[C@@H](CCCCN)C(=O)N[C@@H](CCCCN)C(=O)N[C@@H](CC(C)C)C(=O)N[C@@H](CCCCN)C(=O)NCC(=O)N[C@@H](CCC(=O)O)C(=O)O` [SMWSGMWRRKLKKLRNALKKKLKGE], the minimum inhibitory concentration (MIC) in assay [11] was not below 33 µM; in [12], 1 µM (≈ 3.07 µg/mL); in assay [13], 1.3 µM (≈ 4 µg/mL); in assay [14], 1 µM (≈ 3.07 µg/mL); in assay [15], 1.3 µM (≈ 4 µg/mL); in assay [16], 1.3 µM (≈ 4 µg/mL). The MIC in [17] was 1.3 µM (≈ 4 µg/mL); in assay [18], 4.1 µM (≈ 12.6 µg/mL); in assay [19], 0.5 µM (≈ 1.54 µg/mL); in the assay on Escherichia coli MH1, 0.7 µM (≈ 2.15 µg/mL).
Turning to `CSCC[C@H](NC(=O)[C@H](CO)NC(=O)[C@H](CCCCN)NC(=O)[C@H](Cc1c[nH]c2ccccc12)NC(=O)[C@@H](N)CO)C(=O)N[C@@H](C)C(=O)N[C@@H](CCCCN)C(=O)N[C@@H](CCCCN)C(=O)N[C@@H](CC(C)C)C(=O)N[C@@H](CCCCN)C(=O)N[C@@H](CCC(=O)O)C(=O)N[C@@H](Cc1ccc(O)cc1)C(=O)N[C@@H](CCSC)C(=O)N[C@@H](CCC(=O)O)C(=O)N[C@@H](CCCCN)C(=O)N[C@@H](CC(C)C)C(=O)N[C@@H](CCCCN)C(=O)N[C@@H](CCC(N)=O)C(=O)N[C@@H](CCCNC(=N)N)C(=O)N[C@@H](C)C(=O)O` [SWKSMAKKLKEYMEKLKQRA], the minimal inhibitory concentration (MIC) was found to be 20 µM (≈ 49.7 µg/mL) in assay [11]; 40.3 µM (≈ 100 µg/mL) in [9]; 2.5 µM (≈ 6.21 µg/mL) in [12]; 3.22 µM (≈ 8 µg/mL) in assay [13]; 1.2 µM (≈ 2.98 µg/mL) in assay [14]; 33.8 µM (≈ 84 µg/mL) in assay [3]. The MIC in assay [15] was 6.44 µM (≈ 16 µg/mL); in assay [16], 3.22 µM (≈ 8 µg/mL); in assay [10] it was not below 100 µM; in [17], 3.22 µM (≈ 8 µg/mL); in the assay with Escherichia coli K-12, not below 100 µM; in [18] it was more than 40 µM. The MIC in assay [19] was found to be 0.3 µM (≈ 0.745 µg/mL); against Escherichia coli MH1 it was 6 µM (≈ 14.9 µg/mL).
For the compound `CC(C)C[C@H](NC(=O)[C@H](CCCN=C(N)N)NC(=O)[C@H](CC(N)=O)NC(=O)[C@H](CCCCN)NC(=O)[C@H](CCC(=O)O)NC(=O)[C@H](CCC(=O)O)NC(=O)[C@H](CCC(=O)O)NC(=O)[C@@H](NC(=O)[C@H](CC(C)C)NC(=O)[C@H](CCCCN)NC(=O)[C@@H](NC(=O)[C@H](CCCCN)NC(=O)[C@H](CCCCN)NC(=O)[C@@H](N)[C@@H](C)O)[C@@H](C)O)[C@@H](C)O)C(N)=O` [TKKTKLTEEEKNRL], the MIC in [20], in assay [21], in [22], in assay [23], in [24] and in [25] was not below 50 µM each time.
